Results on 3 compounds are retold here after patent US5968910A, “Compositions containing two or three inhibitors of different HIV reverse transcriptases” (priority 1994, dated 1999).

Values after ≈ are worked out from the molar mass of the structure shown. Where two headings read alike, the source gives them in different places. Some results are limits rather than exact numbers.

For test [1], the system named is HIV-1/TSAO-m^3 T (138-Lys). As to the kind of experiment: Sensitivity of mutant HIV-1 strain in CEM cell cultures. To be noted: Human immunodeficiency virus 1, CCRF-CEM; CEM cells, Table 1; read-out: 50% Effective Concentration. Format: cell-based. The gist of the method:
(§1)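 Infect CEM cells (250,000 cells per ml) with virus at 100 CCID50/ml; add infected suspension to wells holding diluted compound; incubate 4 days, 37° C.; examine for syncytia.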

Test [2] has as its system HIV-1/V(0.1) 101-Ile + 141-Glu. The test is described as above. It counts as cell-based. The note with it: Human immunodeficiency virus 1, CCRF-CEM; Table 5; read-out: EC50. The gist of the method:
as §1

Test [3] deals with HIV-1/B 101Glu. Described as above. It counts as cell-based. The note with it: Human immunodeficiency virus 1, CCRF-CEM; Table 5; read-out: EC50. The essentials: as §1
Test [4] has as its system HIV-1/TIBO R82913 (103-Asn). The test is described as above. Format: cell-based. The note with it: Human immunodeficiency virus 1, CCRF-CEM; CEM cells, Table 1; read-out: 50% Effective Concentration. The essentials:
as §1

Test [5] relates to HIV-1/III(0.1) 103-Asn. The test is described as above. Format: cell-based. The note with it: Human immunodeficiency virus 1, CCRF-CEM; Table 5; read-out: EC50. The essentials:
as §1

Test [6] relates to HIV-1/TIBO R82150 (100-Ile). The description is as above. It counts as cell-based. To be noted: Human immunodeficiency virus 1, CCRF-CEM; CEM cells, Table 1; read-out: 50% Effective Concentration. The gist of the method:
as §1

For test [7], the system named is HIV-1/V(0.5) 103-Asn. Described as above. It counts as cell-based. The note with it: Human immunodeficiency virus 1, CCRF-CEM; Table 5; read-out: EC50. The gist of the method:
as §1

For test [8], the system named is HIV-1/Nev (106-Ala). Described as above. It counts as cell-based. The note with it: Human immunodeficiency virus 1, CCRF-CEM; CEM cells, Table 1; read-out: 50% Effective Concentration. The gist of the method:
as §1

For test [9], the system named is HIV-1/I(0.1) 103-Asn. Described as above. Format: cell-based. To be noted: Human immunodeficiency virus 1, CCRF-CEM; Table 5; read-out: EC50. The gist of the method:
as §1

The test system of test [10] is HIV-1/II(0.1) 100-Ile. The test is described as above. Format: cell-based. The note with it: Human immunodeficiency virus 1, CCRF-CEM; Table 5; read-out: EC50. The essentials:
as §1

Test [11] concerns HIV-1/Pyr (181-Cys). Described as above. It counts as cell-based. The note with it: Human immunodeficiency virus 1, CCRF-CEM; CEM cells, Table 1; read-out: 50% Effective Concentration. The essentials:
as §1

Test [12] relates to HIV-1(IIIB) (WT). As to the kind of experiment: microbe, parasite or virus in culture. It counts as cell-based. The note with it: Human immunodeficiency virus 1, IIIB, CCRF-CEM. The essentials:
as §1

Test [13] relates to HIV-1/TIBO R82150 (100-Ile). The note with it: background, Balzarini I/II; cited from earlier work.
Test [14] has as its target HIV-1 RT (WT) (Human immunodeficiency virus type 1 group M subtype B, UniProt P03366). As to the kind of experiment: biochemical. The note with it: IC50, anti-HIV-1 RT (WT) activity. How it is done:
The reaction mixture (50 μl) contained 50 mM Tris.HCl, pH 7.8, 5 mM dithiothreitol, […] glutathione, 500 μM EDTA, 150 mM KCl, 5 mM MgCl2, 1.25 μg of bovine serum albumin, a fixed concentration of the labeled substrate [2,8-^3 H]dGTP (2.95 μM, 2 μCi), a fixed concentration of the template/primer poly(C).oligo(dG) (0.1 mM), 0.06% Triton X-100, 5 μl of inhibitor solution [containing various concentrations (5-fold dilutions) of the test compounds], and 5 μl of the RT preparation. The reaction mixtures were incubated at 37° C. for 30 min, at which time 100 μl of calf thymus DNA (150 μg/ml), 2 ml of Na4 P2 07 (0.1 M in 1M HCl), and 2 ml of trichloroacetic acid (10%, v/v) were added. The solutions were kept on ice for 30 min, after which the acid-insoluble material was washed and analyzed for radioactivity.
Compounds I, III, IV and V were evaluated for their inhibitory effect on recombinant HIV-1 RT.

The test system of test [15] is HIV-1/IV(0.1) 103-Thr. The test is described as follows: Sensitivity of mutant HIV-1 strain in CEM cell cultures. It counts as cell-based. To be noted: Human immunodeficiency virus 1, CCRF-CEM; Table 5; read-out: EC50. The essentials: as §1
Where [16] appears, read: CEM cells, Table 1, read-out: 50% Effective Concentration.
Setting [17] is: HIV-1 (III8), Table 5, read-out: EC50.

What is called IC50 is the midpoint of a concentration-inhibition curve. As for `CC(C)=CCN1Cc2cc(Cl)cc3[nH]c(=S)n(c23)C[C@@H]1C` [TIBO R82913, reference compound], the EC50 in [1] is 0.3 µg/mL (≈ 0.932 µM); in test [2] it was 0.16 µg/mL (≈ 0.497 µM); in test [3], > 2.5 µg/mL; in test [4], 4.3 µg/mL (≈ 13.4 µM); in test [5], 0.23 µg/mL (≈ 0.715 µM); in test [6], 1.75 µg/mL (≈ 5.44 µM). Further, the EC50 in test [7] was 5 µg/mL (≈ 15.5 µM); in [8] it was 0.5 µg/mL (≈ 1.55 µM); in test [9], 1.1 µg/mL (≈ 3.42 µM); in test [10], ≥ 5 µg/mL; in test [11] it was 2 µg/mL (≈ 6.21 µM); in [12] (setting [16]), 0.016 µg/mL (≈ 0.0497 µM). For the same compound, the EC50 in test [12] (setting [17]) is 0.02 µg/mL (≈ 0.0621 µM). Also, the “resistance of HIV-1 strains containing the 100 Leu→Ile mutation in their RT” value in [13] is on record as “resistant”. For the same compound, in [14], the half-maximal inhibitory concentration (IC50) was 2050 nM.

Turning to `CCc1cc(NCc2nc3c(Cl)ccc(Cl)c3o2)c(O)nc1C` [Pyridinone L-697,661, 3-{[(4,7-dichloro-1,3-benzoxazol-2-yl)methyl]amino}-5-ethyl-6-methylpyridin-2(1H)-one, reference compound], the EC50 in test [1] came out at 0.17 µg/mL (≈ 0.483 µM); in [15] it was 0.5 µg/mL (≈ 1.42 µM); in [2] it was 0.08 µg/mL (≈ 0.227 µM); in [3], 0.035 µg/mL (≈ 0.0994 µM); in test [4], 0.5 µg/mL (≈ 1.42 µM); in test [5], 0.03 µg/mL (≈ 0.0852 µM). For the same compound, the EC50 is 0.18 µg/mL (≈ 0.511 µM) in [6]; 0.55 µg/mL (≈ 1.56 µM) in [7]; 0.24 µg/mL (≈ 0.681 µM) in [8]; 0.3 µg/mL (≈ 0.852 µM) in test [9]; 0.63 µg/mL (≈ 1.79 µM) in test [10]; 3.67 µg/mL (≈ 10.4 µM) in [11]. For the same compound, the EC50 in test [12] (setting [16]) and in test [12] (setting [17]) was 0.007 µg/mL (≈ 0.0199 µM) in each case. For the same compound, the IC50 in test [14] was 1080 nM.

Consider `CC(C)=CCN1Cc2cccc3[nH]c(=S)n(c23)C[C@@H]1C` [Compound R82150], for which the “resistance of HIV-1 strains containing the 100 Leu→Ile mutation in their RT” value in test [13] is given as “resistant”.
